Key:
[1] = test system: influenza H3N2 strain IVR-165 (A/Victoria/361/2011); format: cell-based
[2] = test system: cellular cholesterol; assay: Total cellular cholesterol (Amplex Red); format: cell-based; conditions: normalized to DMSO
Experimental: Possible effects of BYF589 as well as various enzyme inhibitors of the pathway on the cell viability and total cellular cholesterol levels were examined. Tested samples included DMSO, BYF589 (1 μM), MEV (100 μM), FTI (0.5 μM), ZA (1 μM) and GTI (0.5 μM).
Free cholesterol is oxidized by cholesterol oxidase to form a cholesterol ketone and H2O2, which then reacts with Amplex Red+HRP to produce the fluorescent product resorufin.

[3] = test system: influenza in MDCK 33016PF cells; format: cell-based
[4] = test system: IP10 and IFNB1; format: cell-based
[5] = test system: virus-infected host cell culture; format: cell-based, influenza; conditions: versus control without compound
[6] = test system: B/Massachusetts/02/2012; assay: Ambr 250 mL bioreactor, B strain; format: cell-based, influenza B
Experimental: FIG. 13 provides a graph showing HA yields in the B strain tested with BYF589 at concentrations as indicated.
FIG. 14 provides a graph showing HA yields in the B strain tested with AFZ077 at concentrations as indicated.
The results were confirmed using 3 different viruses (a high-, medium-, and poor-expressing strains). […] To confirm these findings in a larger-scale system, TD Ambr™ 250 mL bioreactors were employed. Both of the lead compounds (as well as DMSO alone as negative control, and, no compound/no DMSO as double-negative control) were tested with a high- and low-expressing strains to determine if the observed enhancement in the small-scale cultures can be reproduced in a larger-scale system. The following parameters were used: Spent DM134:Fresh PFM (1:3); Virus Strains were A/Victoria/361/2011 (IVR-165) and B/Massachusetts/02/2012; MOI was 10^−5 for A/Victoria IVR-165 and 10^−4 for B/Massachusetts; ICD: 2.0e6-3.0e6 cells/mL; N-1 Process: 1B (no Medium Exchange); and, Harvest Time was 65-72 hours post-infection. HA yields were measured by two methods: RP-HPLC and HA-ELISA. […] Note that the error bars represent one standard deviation from the mean, to illustrate variability of the HA-ELISA assay between assay repeats.

[7] = test system: MDCK 33016PF cells; conditions: 24 hours; BYF589 1 μM, MEV 100 μM, FTI 0.5 μM, ZA 1 μM, GTI 0.5 μM

For `O=C(O)C[C@H](O)C[C@H](O)/C=C/c1c(C2CC2)nc2ccccc2c1-c1ccc(F)cc1` [Compound G, (3R, 5S, 6E)-7-[2-cyclopropyl-4-(4-fluorophenyl)-quinolin-3-yl)-3,5-dihydroxyhept-6-enoic acid], the “HA yield before the decrease (earlier addition)” value [1] was “about 20 μg/ml”, the “HA yield, compound added 2 hours post infection” value [1] was “about 5 μg/ml” and the “cellular cholesterol levels, compound alone” value [2] was “lower cholesterol”. The “HA yield enhancement in multiple strains and subtypes of influenza” value [3] was “at least 2 fold”, the “delay time of gene induction (measured at peak)” value ([4]; both genes, versus absence of compound) was “at least two hours” and the “induction of IFNb and IP10” value ([4]; virus-infected MDCK cells, preliminary qRT-PCR data) was “delayed/suppressed induction”. For the same molecule, the “increase in HA yield at 24 hours, compound added at T=2, 4” value [5] was “no significant enhancement in HA yield”, the “increase in HA yield at 24 hours, compound added at T=6” value [5] was “no significant enhancement in HA yield” and the “increase in HA yield at 24 hours, compound added at time of infection (T=0)” value [5] was “approximately 4 fold”. For the same molecule, the “effectiveness in increasing protein production yield by concentration” value ([6]; 5 nM vs 50 nM vs 500 nM) was “more effective in increasing protein production yield at 5 nM than at 50 nM, which in turn was more effective than at 500 nM”, the “increase in yield over no DMSO control” value ([6]; 0.005 μM, HA-HPLC) was “about 37%” and the “effect on cell viability” value [7] was “no negative effect on cell viability”.

From patent US11897918B2, “Compositions and methods to increase production” (priority 2014, dated 2024)
